Among the data in patent US11845724B2, “USP30 inhibitors and uses thereof” (Vincere Biosciences, Inc., priority 2019, dated 2023) are IC50 and activity values, retold here.

Test [1] addresses T1, USP30 (Homo sapiens (Human), UniProt Q70CQ3). The experiment in a line: Dundee MALDI-TOF mass spectrometry assay (IC50). The class given is biochemical. To be noted: USP30 25 ng/μl, K48-linked diubiquitin 5.6 μM. Put shortly:
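USP30 (25 ng/μl) preincubated with compound 5 min at RT in Tris/BSA/DTT buffer, then K48-linked diubiquitin (5.6 μM) added for 45 min at RT. Stopped with 2% TFA; cleavage quantified by MALDI-TOF mass spectrometry to give IC50.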

The target of test [2] is T1, USP30. Briefly: Dundee MALDI-TOF mass spectrometry assay (% DUB activity remaining at 1 μM). The class given is biochemical. To be noted: % DUB activity remaining at compound concentration of 1 μM; avg; read-out: Dundee % Activity at 1 μM (avg in vitro MS assay). How it is done: Compounds were tested in a MALDI-TOF assay based on the paper by Ritorto et al. (Ritorto et al. Screening of DUB activity and specificity by MALDI-TOF mass spectrometry. Nat. Commun. 5:4763).
USP30 (25 ng/μl) tested against K48-linked diubiquitin (5.6 μM). USP30 was diluted in a buffer containing 40 mM Tris, 0.01% BSA, 1 mM DTT and K48 in 40 mM Tris, 0.01% BSA.
The compounds were pre-incubated with the USP30 for 5 mins at room temp before the K48 dimer addition. The assay mixture was then incubated for 45 mins at room temp. The assay was stopped by the addition of TFA to a final concentration of 2% (v/v).
Acidified samples of the DUB assays were mixed with 0.5 mM 15N-ubiquitin and then with one part of 2% (v/v) TFA and one part of 2,5 DHAP matrix solution (7.6 mg of 2,5 DHAP in […] ethanol and […] of an aqueous 12 mg ml 1 diammonium hydrogen citrate). Then 250 nl of these solutions were spotted onto an MTP AnchorChip 1,536 TF and this is analysed on the Bruker rapifleX MALDI-TOF.
Table 22 presents the Dundee MALDI-TOF values expressed as % DUB activity remaining at a compound concentration of 1 μM.

The test system of test [3] is differentiated RenCell VM. Briefly: In-cell Tom20 loss assay. The class given is cell-based. To be noted: 20 h after compound addition. How it is done:
To evaluate Tom20 loss following treatment with compounds and/or antimycin/oligomycin, a96-well plate assay was performed on differentiated RenCell VM. These were seeded into laminin-coated 96-well plates at 5000 cells/well in normal growth medium (ReNcell NSC maintenance medium+20 ng/ml FDF-2 and 20 ng/ml EGF). After 3 days, growth medium was replaced with differentiation medium (ReNCell NSC medium+0.1 mM dibutyryl cAMP and 2 ng/ml GDNF). On days 1 and 4 following addition of differentiation medium, the media was removed and replaced with fresh differentiation medium. On the 7th day compounds or DMSO were added, and 1 hour later, some wells also received additions of oligomycin (1 uM and antimycin (1 uM). 20 h after compound addition, cells were fixed by adding formaldehyde to a final concentration of […], incubated 20 minutes at room temperature, then washed with PBS. Blocking buffer (3% bovine serum albumin, 2% fetal bovine serum, 0.2% Triton X100 in PBS) was added to all wells for two hours, then removed and replaced with blocking buffer containing antibody against Tom20 overnight. After washing with PBS, secondary antibody (Donkey anti-mouse conjugated to Cy3) was added along with DAPI to mark nuclei, and incubated two hours. After again washing with PBS, cells were imaged using GE INCell 6000 at 40× and quantified using HCA-based quantification algorithm of fluorescence density×area normalized to the number of nuclei.

Test [4] has as its target recombinant USP30 (amino acids 57-517 of the human sequence) (Homo sapiens (Human), UniProt Q70CQ3). The experiment in a line: In vitro USP30 biochemical assay (Ubiquitin-Rhodamine).
Protocol: In vitro biochemical assay to establish the potency of compounds for USP30 inhibition: a 384-well plate assay using a fluorophore tagged substrate of USP30 was used for in vitro screening of compounds. Each compound was tested at 10 different concentrations (0.5 to 10,000 nM) in duplicate wells. Compounds were pre-incubated at 25° C. for 30 min in an assay buffer consisting of 20 mM Tris/HCl, pH8.0, 1 mM GSH, 0.01% Triton X-100, 0.03% BGG and 1.5 nM recombinant USP30 (amino acids 57-517 of the human sequence with a C-terminal 6-His tag). Following the pre-incubation, Ubiquitin-Rhodamine substrate dissolved in the assay buffer was added at the final concentration of 25 nM to each well and plates were incubated at 25° C. for an additional 75 minutes. The reaction was stopped by adding 10 mM citric acid and fluorescence was read using excitation wavelength 485 nm, emission of 535 nm. Data were analyzed using Graph Pad Prism software with a four-parameter (floating slope) fit to log concentration data to determine IC50s.

Molecules are shown by their SMILES. Like-named read-outs stand apart in the source and are kept apart here.

T1 sequence (Q70CQ3 whole entry): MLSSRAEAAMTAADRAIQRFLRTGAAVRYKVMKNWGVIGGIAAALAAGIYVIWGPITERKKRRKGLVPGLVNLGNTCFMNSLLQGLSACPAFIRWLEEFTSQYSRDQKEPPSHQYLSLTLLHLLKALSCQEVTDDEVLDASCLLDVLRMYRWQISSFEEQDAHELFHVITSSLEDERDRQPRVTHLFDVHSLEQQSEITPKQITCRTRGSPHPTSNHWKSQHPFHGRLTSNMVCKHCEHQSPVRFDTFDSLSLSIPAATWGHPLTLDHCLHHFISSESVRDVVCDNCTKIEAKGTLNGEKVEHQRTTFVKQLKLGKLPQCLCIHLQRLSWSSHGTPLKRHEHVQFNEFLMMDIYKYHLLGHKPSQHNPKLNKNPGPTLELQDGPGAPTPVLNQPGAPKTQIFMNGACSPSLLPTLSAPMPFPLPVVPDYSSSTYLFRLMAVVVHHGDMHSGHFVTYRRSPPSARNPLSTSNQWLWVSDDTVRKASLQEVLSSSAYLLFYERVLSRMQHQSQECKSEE
Sequence of recombinant USP30 (amino acids 57-517 of the human sequence) (Q70CQ3 57-517): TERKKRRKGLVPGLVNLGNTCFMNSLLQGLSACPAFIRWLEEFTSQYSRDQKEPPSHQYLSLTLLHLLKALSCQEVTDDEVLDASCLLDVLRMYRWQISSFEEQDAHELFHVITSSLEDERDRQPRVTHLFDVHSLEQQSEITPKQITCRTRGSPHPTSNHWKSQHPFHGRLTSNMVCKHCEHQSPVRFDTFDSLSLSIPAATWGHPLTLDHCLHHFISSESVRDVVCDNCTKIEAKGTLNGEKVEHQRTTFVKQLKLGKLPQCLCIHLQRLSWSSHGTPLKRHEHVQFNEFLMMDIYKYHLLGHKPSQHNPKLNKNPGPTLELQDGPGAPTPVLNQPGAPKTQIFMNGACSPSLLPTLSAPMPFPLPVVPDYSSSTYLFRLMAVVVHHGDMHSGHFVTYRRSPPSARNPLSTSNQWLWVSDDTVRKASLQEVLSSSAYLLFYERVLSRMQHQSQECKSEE

By IC50 is commonly meant the point on the concentration scale where inhibition reaches its midpoint. As for `CC(C)(C)NS(=O)(=O)c1ccc(NC(=O)C2Cc3ccccc3CN2C(=O)c2ccc(F)cc2)cc1` (stereo not shown) [Compound I-22, N-(4-(N-tert-Butylsulfamoyl)phenyl)-2-(4-fluorobenzoyl)-1,2,3,4-tetrahydroisoquinoline-3-carboxamide], the IC50 in test [1] (Dundee IC50 μM (avg in vitro MS assay)) is 0.05 to 1 µM; in test [3], above 10000 nM; in test [4] (USP30 IC50 μM (avg), Ubiquitin-Rhodamine substrate 25 nM, 1.5 nM recombinant USP30) it was 1 to 10 µM. Also, the activity at 1 µM in test [2] was 0 to 25%.

`CC(C)(CO)NS(=O)(=O)c1ccc(NC(=O)[C@H](Cc2ccccc2)NC(=O)c2ccc(F)cc2)cc1` [Compound I-137, (S)-4-fluoro-N-(1-(4-(N-(1-hydroxy-2-methylpropan-2-yl)sulfamoyl)phenylamino)-1-oxo-3-phenylpropan-2-yl)benzamide]: the IC50 in test [1] (avg, read-out: Dundee IC50 μM (avg in vitro MS assay)) is below 0.05 µM; in test [3], at most 500 nM; in test [4] (read-out: USP30 IC50 μM (avg), Ubiquitin-Rhodamine substrate 25 nM, 1.5 nM recombinant USP30) it was below 0.05 µM.
